Experimental findings from PMC5400620, “Preclinical therapeutic efficacy of a novel blood-brain barrier-penetrant dual PI3K/mTOR inhibitor with preferential response in PI3K/PTEN mutant glioma” (Oncotarget, 2017) are described below.

Like-named read-outs stand apart in the source and are kept apart here.

In one data set the target is p110γ (Homo sapiens, UniProt P48736). In words: class I PI3K HTRF assay, p110γ. Format: biochemical. As for the experimental part:
(§1) DS7423 inhibits PI3K/mTOR activity likely binding to the ATP binding cleft of these enzymes and was tested against class I PI3K and other kinases using an HTRF assay format and direct measurement of substrate phosphorylation, respectively.
On the technique in general: In TR-FRET formats the signal depends on donor and acceptor labels being close together.

The next data set addresses p110δ (Homo sapiens, UniProt O00329). As to the kind of experiment: class I PI3K HTRF assay, p110δ. Format: biochemical. How it is done: as §1
The target of data set [1] is mixed lineage kinase 1 (MLK1) (Homo sapiens, UniProt P80192). In words: kinase panel, direct measurement of substrate phosphorylation, MLK1. Format: biochemical. Conditions: panel of 227 kinases; test concentration not given. As for the experimental part: as §1
mixed lineage kinase 1 (MLK1), sequence (P80192 whole entry): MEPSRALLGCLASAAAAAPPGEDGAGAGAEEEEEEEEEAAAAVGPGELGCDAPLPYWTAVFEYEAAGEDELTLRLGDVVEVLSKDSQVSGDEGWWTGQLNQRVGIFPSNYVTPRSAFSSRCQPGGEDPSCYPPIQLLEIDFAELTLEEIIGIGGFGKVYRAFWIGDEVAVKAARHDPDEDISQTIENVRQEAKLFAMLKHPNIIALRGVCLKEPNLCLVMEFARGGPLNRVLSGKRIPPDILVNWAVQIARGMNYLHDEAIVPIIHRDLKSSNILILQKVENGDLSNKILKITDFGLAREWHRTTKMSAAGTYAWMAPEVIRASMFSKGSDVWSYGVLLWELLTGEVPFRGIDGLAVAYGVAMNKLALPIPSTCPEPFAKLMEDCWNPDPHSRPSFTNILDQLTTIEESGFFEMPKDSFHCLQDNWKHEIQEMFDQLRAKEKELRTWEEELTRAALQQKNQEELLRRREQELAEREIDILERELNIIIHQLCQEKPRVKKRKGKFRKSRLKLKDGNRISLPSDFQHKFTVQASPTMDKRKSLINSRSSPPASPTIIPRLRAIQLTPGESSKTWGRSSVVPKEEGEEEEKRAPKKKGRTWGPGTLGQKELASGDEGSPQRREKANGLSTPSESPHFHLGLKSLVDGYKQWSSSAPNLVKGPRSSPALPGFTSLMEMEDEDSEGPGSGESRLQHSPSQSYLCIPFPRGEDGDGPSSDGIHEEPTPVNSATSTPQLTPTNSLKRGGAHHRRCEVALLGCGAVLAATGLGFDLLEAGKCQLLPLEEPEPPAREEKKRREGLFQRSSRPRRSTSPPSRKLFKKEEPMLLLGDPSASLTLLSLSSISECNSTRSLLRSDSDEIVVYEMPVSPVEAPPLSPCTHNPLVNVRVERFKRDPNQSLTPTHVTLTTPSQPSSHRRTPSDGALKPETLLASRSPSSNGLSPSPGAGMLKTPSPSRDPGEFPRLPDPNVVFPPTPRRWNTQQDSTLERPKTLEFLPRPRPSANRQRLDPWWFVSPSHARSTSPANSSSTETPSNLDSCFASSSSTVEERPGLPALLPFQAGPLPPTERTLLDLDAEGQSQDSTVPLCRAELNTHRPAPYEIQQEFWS
The target in data set [2] is T1, never-in-mitosis gene a (NIMA)-related kinase 2 (NEK2) (Homo sapiens, UniProt P51955).
T1 sequence (P51955 1-445): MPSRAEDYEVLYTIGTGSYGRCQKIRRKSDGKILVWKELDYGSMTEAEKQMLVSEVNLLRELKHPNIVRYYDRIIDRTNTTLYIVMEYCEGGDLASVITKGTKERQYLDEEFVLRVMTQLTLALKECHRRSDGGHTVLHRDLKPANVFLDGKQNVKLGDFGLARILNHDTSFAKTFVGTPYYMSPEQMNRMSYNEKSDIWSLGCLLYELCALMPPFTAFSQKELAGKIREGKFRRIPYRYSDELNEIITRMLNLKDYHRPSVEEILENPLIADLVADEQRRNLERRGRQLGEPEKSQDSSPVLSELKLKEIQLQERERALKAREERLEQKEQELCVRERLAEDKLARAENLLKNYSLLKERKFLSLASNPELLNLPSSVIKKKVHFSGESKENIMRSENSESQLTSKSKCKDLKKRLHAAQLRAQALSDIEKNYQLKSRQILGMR
As to the kind of experiment: kinase panel, direct measurement of substrate phosphorylation, NEK2. Format: biochemical. The following applies: panel of 227 kinases; test concentration not given. As for the experimental part:
as §1

Data set [3] relates to glioma cell lines and GICs. As to the kind of experiment: CellTiter-Blue cell viability assay, 72 hours. Format: cell-based. Conditions: Homo sapiens. As for the experimental part:
To determine the cytotoxicity of DS in GBM cells and GICs in vitro, we used a colorimetric […] assay. […] To investigate the role of PI3K/PTEN, we expressed PTEN in PTEN-mutant U87 glioma cells.
A panel of GIC lines was treated with various concentrations of DS. Cells were treated with increasing concentrations of DS in triplicate wells for 72 hours, and cell viability was assessed by a CellTiter-Blue assay. The results shown are from a single experiment with three independent replicates. The graph depicts cell viability at 72 hours. Cell viability in the vehicle control was considered to be 100%.
Nine well characterized GBM cell lines and 22 patient-derived GIC lines (provided by Drs. Frederick. F. Lang and Erik. P. Sulman, Brain Tumor center, M. D. Anderson Cancer Center) with various P53, PIK3CA, and PTEN statuses were used for this study. GBM cells were maintained as monolayer cultures and GICs were cultured as GBM neurospheres in DMEM/F12 medium containing B27 supplement (Invitrogen, Grand Island, NY) and basic fibroblast growth factor, and epidermal growth factor (20 ng/ml each).
The antiproliferative effect of DS on cells growing in culture was determined using the CellTiter-Blue (Promega, Madison, WI) viability assay. […]
On the technique in general: Resazurin is reduced to fluorescent resorufin, in cell work by metabolically active cells.

The test system of the next data set is U87 glioma cells. In words: U87 orthotopic intracranial xenograft efficacy. The class given is in vivo. From the text: (§2) Figure 4 DS7423 suppressed tumor growth and prolonged survival in an orthotopic mouse xenograft model U87 glioma cells U87 and GSC11 GICs were used to generate orthotopic xenografts in mouse brains. Tumor-bearing mice received either vehicle or DS7423 at the indicated dose/schedules. Two mice were killed at the indicated time points (2 weeks and 4 weeks) after DS treatment. A. and B. Kaplan–Meier survival plots of tumor-bearing mice in vehicle or DS7423 treatment groups (n = 10). The log-rank method was used to test for a difference between groups. […] Bar, 100 μm.
(§3) 6 to 8-week-old male nude mice were obtained from the MD Anderson breeding facility and used in accordance with the Animal Care and Use Guidelines of MD Anderson Cancer Center. In this study, 5 × 10^5 U87 (PTEN mutant) cells in DMEM/F12 serum-free media (5 μL) and GSC11 (PIK3CA mutant and PTEN mutant) were implanted intracranially into each mouse using a guide-screw system, as described previously. Four days after injection of the tumor cells, mice were randomized into 2 groups (10 animals per group). Mice in-group 1 was given 6 mg/kg DS7423 via oral gavage, and mice in-group 2 were given the vehicle (0.5% methyl cellulose) used for administration of DS (control). […] Mice were monitored daily and euthanized when they became moribund. […]

Another data set concerns GSC11 GICs. In words: GSC11 orthotopic intracranial xenograft efficacy. Conditions: GSC11 tumor-bearing mice, 6 mg/kg oral; control 47 days; P=0.014. Format: in vivo, nude mice.
Description: as §2, §3

The test system of a further data set is U87 GFP-LC3 cells. As to the kind of experiment: GFP-LC3 puncta detection (autophagy). Format: cell-based, human. The following applies: TMZ 125 μM, DS 100 nM, control 2%. The source says: To investigate the effects of DS, TMZ, or the TMZ/DS combination on autophagy in glioma cells, we transfected cells with GFP-LC3 constructs in addition to various drug treatment and control treatment regimens and examined the accumulation of punctate GFP-LC3 structures using fluorescence microscopy. During autophagy, LC3-II relocalizes to the autophagosomal membranes. Thus, the accumulation of GFP-LC3 puncta provides an effective way to detect autophagosomes. In control cells, GFP-LC3 punctate structures were not detected, but large numbers of GFP-LC3 punctate structures were found in cells treated with DS or TMZ (Figure 5C). […] Strikingly, the combination of DS and TMZ further induced autophagy in up to 50% of U87 cells.
U87 GFP-LC3 cells were analyzed by using a fluorescence microscope, and the percentage of cells displaying GFP-LC3-positive puncta was quantified by counting 5 random fields in 3 independent experiments.

p110δ, sequence (O00329 whole entry): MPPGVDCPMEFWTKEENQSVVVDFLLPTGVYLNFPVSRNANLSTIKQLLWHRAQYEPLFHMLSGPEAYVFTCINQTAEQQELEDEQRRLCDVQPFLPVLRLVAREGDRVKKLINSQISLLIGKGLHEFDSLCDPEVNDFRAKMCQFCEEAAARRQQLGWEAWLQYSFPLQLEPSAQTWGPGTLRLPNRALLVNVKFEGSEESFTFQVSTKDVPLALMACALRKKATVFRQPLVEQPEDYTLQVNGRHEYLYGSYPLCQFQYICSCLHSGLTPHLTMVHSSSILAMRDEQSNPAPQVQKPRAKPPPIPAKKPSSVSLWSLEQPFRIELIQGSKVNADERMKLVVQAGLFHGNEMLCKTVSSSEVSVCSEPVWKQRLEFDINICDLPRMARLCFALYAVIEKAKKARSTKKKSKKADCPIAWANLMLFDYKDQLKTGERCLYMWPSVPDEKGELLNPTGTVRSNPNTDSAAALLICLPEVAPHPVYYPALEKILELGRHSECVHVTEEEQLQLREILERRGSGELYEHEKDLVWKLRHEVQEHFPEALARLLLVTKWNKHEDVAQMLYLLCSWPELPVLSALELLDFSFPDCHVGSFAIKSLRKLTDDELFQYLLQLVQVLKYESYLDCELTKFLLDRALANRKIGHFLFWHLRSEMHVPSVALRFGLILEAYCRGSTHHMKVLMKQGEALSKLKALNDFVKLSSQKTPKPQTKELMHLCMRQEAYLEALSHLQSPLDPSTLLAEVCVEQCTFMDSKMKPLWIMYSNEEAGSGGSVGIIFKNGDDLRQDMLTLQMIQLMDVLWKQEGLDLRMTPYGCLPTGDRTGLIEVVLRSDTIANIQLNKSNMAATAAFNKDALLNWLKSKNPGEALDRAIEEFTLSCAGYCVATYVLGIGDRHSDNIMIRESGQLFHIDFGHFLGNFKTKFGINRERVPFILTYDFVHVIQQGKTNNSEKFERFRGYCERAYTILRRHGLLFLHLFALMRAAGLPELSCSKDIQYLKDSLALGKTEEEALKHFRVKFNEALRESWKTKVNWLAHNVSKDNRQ
p110δ, sequence (P27986 whole entry partner): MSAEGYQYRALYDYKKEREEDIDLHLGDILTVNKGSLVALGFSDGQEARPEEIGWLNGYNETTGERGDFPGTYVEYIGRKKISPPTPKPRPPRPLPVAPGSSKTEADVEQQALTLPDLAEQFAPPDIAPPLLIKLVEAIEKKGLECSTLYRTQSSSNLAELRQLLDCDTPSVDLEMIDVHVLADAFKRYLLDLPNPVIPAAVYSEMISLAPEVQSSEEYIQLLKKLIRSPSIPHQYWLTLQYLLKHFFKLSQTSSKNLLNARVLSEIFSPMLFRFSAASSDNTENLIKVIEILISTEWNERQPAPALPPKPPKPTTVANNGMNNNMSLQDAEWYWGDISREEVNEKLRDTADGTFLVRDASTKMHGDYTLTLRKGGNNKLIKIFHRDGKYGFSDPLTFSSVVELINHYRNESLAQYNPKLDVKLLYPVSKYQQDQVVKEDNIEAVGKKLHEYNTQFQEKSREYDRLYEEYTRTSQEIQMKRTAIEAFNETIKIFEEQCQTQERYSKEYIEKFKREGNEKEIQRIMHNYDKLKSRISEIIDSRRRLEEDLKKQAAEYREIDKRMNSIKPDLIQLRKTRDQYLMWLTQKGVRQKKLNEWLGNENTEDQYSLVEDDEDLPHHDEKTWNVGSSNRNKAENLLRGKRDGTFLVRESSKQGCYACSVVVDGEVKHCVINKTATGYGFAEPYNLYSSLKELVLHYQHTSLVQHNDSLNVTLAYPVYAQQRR
p110γ, sequence (P48736 whole entry): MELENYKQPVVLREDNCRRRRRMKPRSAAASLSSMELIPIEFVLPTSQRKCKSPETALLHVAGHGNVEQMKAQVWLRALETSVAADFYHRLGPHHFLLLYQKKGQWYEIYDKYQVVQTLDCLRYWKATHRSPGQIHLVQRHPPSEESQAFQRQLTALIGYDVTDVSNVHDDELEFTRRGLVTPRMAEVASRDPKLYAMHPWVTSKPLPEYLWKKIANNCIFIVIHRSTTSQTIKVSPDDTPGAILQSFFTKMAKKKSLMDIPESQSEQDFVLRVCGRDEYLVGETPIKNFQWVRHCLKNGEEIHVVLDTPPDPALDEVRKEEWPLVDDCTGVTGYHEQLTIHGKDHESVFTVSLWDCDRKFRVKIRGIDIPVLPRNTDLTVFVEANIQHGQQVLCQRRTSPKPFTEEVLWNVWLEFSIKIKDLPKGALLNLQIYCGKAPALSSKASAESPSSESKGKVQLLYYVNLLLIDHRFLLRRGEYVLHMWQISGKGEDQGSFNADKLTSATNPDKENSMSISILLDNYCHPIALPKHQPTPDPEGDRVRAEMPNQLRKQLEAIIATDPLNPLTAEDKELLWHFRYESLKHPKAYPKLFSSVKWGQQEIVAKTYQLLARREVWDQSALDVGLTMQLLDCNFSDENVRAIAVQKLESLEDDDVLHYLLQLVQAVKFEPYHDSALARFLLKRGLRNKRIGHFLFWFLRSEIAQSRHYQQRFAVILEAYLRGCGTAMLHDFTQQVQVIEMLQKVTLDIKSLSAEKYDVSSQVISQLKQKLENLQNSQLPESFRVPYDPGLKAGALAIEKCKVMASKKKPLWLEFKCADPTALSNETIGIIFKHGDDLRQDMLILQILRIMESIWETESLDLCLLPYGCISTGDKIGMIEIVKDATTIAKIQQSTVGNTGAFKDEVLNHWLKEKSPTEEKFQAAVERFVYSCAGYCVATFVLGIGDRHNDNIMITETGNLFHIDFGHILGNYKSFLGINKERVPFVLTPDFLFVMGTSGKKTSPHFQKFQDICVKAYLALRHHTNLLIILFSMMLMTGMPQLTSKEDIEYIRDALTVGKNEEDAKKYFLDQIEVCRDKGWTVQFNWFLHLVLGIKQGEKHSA

As to `CC(=O)N1CCN(c2nc3c(N4CCOCC4)nc(-c4cnc(N)nc4)nc3n2CC(F)(F)F)C[C@H]1C` [DS, 1-{(2R)-4-[2-(2-Aminopyrimidin-5-yl)-6-(morpholin-4-yl)-9-(2,2,2-trifluoroethyl)-9H-purin-8-yl]-2-methylpiperazin-1-yl}ethan-1-one], the IC50 on p110γ is 249 nM; against p110δ, 262 nM; in data set [3] (Glioma cell, GBM cells and GICs, 72 hours exposure, read-out: half maximal inhibitory concentration range of cells considered sensitive) it was 150 to 265 nM; in data set [3] (9 glioma cell lines and 22 GIC lines, 72 hours, read-out: mean 50% inhibitory concentration, growth of glioma tumor cell lines and GICs), under 250 nM. In addition, in data set [1], the “inhibition of MLK1” value was “greater than 50%”. Moreover, the “inhibition of NEK2” value in data set [2] is given as “greater than 50%”. Further, the median survival time in the data set with U87 glioma cells (U87 tumor-bearing mice, 6 mg/kg oral, control 30 days, P=0.025) was found to be 46 days. For the same compound, in the data set on U87 glioma cells (treated mice), the “toxic effects in mice with intracranial xenograft tumors” value is “without causing any obvious toxic effects”. For the same compound, the median survival in the data set on GSC11 GICs was 61 days. The “cells with induced autophagy (GFP-LC3 puncta)” value with U87 GFP-LC3 cells is given as 30%.
